Read-outs that look alike come from different tables or passages of the source.
Tests used:
[1] = Single ascending dose (SAD) study in healthy human, safety; format: in vivo
Description: (§1) To determine safety and pK data in human subjects, single ascending dose (SAD) study was conducted. SAD study included 5 cohorts of 8 healthy subjects who were randomized and received a single oral dose of Reference Example 1 compound or placebo (3:1) at 0.5 mg, 1 mg, 2 mg, 5 mg, or 10 mg. Each cohort was initiated after review of the safety and PK data of the previous cohort. 5 mg cohort was divided into two groups, wherein one group was administered with Reference Example 1 compound in fasted state and the other group was administered with Reference Example 1 compound together with food.
As expected from preclinical PK modelling, none of the single doses exceeded the PK stopping criteria for Cmax and AUClast.
Of the 12 AEs, 5 were considered to be possibly related to IMP (Investigational Medicinal Product). The 5 AE included headaches (2), lower abdominal pain, diarrhea, and exanthema in the right upper arm, all of which were of mild intensity and recovered quickly.
Overall, none of the AEs caused medical concern, and no stopping criteria per protocol were met.

[2] = HμRELTox assay, hepatotoxic response; format: cell-based; settings: read-out: TC50 (the source's name)
[3] = target: MRP3 (Homo sapiens, UniProt O15438); test: Human transporter inhibition study, MRP3; format: biochemical
Sequence of MRP3 (O15438 whole entry): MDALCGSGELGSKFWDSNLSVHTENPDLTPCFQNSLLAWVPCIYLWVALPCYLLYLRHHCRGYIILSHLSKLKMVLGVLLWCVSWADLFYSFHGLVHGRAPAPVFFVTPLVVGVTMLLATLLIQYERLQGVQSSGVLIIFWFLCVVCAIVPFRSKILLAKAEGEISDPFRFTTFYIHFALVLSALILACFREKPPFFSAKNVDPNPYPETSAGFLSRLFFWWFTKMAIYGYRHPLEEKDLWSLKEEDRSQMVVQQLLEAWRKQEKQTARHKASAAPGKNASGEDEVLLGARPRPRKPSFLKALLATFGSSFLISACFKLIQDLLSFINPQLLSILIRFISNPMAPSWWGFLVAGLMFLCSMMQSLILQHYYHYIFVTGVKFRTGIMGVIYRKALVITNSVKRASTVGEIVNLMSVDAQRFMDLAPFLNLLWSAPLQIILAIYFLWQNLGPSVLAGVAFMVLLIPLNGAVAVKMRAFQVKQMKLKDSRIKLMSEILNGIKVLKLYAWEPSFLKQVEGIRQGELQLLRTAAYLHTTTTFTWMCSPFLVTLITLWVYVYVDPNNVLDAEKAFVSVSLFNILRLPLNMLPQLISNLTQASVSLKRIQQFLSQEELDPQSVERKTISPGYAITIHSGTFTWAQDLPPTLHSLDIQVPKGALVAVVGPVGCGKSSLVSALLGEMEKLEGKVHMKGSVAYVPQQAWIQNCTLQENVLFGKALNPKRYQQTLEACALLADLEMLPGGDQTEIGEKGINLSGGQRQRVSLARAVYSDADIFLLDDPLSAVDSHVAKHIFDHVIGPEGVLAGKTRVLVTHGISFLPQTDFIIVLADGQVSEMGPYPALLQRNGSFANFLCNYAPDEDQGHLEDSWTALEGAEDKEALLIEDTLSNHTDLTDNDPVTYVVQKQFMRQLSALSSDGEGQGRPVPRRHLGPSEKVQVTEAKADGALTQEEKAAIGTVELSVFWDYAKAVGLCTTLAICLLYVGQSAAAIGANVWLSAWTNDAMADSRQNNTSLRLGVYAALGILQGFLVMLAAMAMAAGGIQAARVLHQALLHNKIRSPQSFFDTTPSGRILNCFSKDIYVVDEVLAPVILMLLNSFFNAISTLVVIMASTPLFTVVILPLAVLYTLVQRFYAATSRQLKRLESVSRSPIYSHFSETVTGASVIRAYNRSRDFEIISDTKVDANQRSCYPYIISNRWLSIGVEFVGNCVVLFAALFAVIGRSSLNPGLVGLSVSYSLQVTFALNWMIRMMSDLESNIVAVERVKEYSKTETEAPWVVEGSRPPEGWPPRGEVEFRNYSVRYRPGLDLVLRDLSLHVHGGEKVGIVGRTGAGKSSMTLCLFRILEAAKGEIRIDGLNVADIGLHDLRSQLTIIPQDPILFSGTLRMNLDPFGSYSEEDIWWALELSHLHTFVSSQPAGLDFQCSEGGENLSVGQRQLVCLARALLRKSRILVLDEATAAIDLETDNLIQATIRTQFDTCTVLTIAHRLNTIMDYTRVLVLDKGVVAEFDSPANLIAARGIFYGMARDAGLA
Excerpt: (§2) • (a) Human Transporter Inhibition Study and Safety Margin

[4] = Single ascending dose (SAD) study in healthy human, plasma PK; format: in vivo; settings: for AUC(0-inf) / AUC(0-t) / Cmax: human, plasma, po; for AUC(0-inf): read-out: AUCinf, geometric mean; for AUC(0-t): read-out: AUClast, geometric mean; for Cmax: read-out: Cmax, geometric mean
Description: as §1
Mean plasma concentration of Reference Example 1 compound following single dose of 0.5, 1, 2, 5, and 10 mg are shown in FIG. 4A (linear scale) and FIG. 4B (semi-logarithmic scale).
FIG. 5A and FIG. 5B show mean plasma concentration of Reference Example 1 compound following single dose of 0.5 mg (fasted), 1 mg (fasted), 2 mg (fasted), 5 mg (fasted), and 5 mg (fed) in linear scale and semi-logarithmic scale, respectively.

[5] = system: HepaRG cell; test: Mitochondrial function inhibition in HepaRG cell; format: cell-based
[6] = system: human hepatocytes; test: Covalent protein binding in human hepatocytes; format: in vitro ADME
Description: The covalent binding (CVB) burden was estimated by determining the CVB of radiolabeled compound to human hepatocytes and factoring in both the daily dose and the fraction of metabolism leading to CVB. […] Reference Example 1 compound's dose over 260 mg a day was predicted to exceed the CVB burden threshold of 1 mg/day.

[7] = system: hepatic transcription factors; test: Transcription factor profiling in 2D HepG2 cell, various hepatic transcription factors; format: cell-based; settings: 2D HepG2 cell, 0.3, 3.3, 10 μM; compared to fasiglifam
[8] = OGTT (Oral Glucose Tolerance Test) in SD rats; format: in vivo; settings: 1 mg/kg
Description: Additionally, the results of the exposure and efficacy of Reference Example 1 compound (at 0.1 mg/kg, 0.3 mg/kg, and 1 mg/kg doses) in SD rats are shown in FIG. 6.

[9] = target: MRP2 (Homo sapiens, UniProt Q92887); test: Human transporter inhibition study, MRP2; format: biochemical; settings: read-out: MRP2 in vitro inhibition IC50
Sequence of MRP2 (Q92887 whole entry): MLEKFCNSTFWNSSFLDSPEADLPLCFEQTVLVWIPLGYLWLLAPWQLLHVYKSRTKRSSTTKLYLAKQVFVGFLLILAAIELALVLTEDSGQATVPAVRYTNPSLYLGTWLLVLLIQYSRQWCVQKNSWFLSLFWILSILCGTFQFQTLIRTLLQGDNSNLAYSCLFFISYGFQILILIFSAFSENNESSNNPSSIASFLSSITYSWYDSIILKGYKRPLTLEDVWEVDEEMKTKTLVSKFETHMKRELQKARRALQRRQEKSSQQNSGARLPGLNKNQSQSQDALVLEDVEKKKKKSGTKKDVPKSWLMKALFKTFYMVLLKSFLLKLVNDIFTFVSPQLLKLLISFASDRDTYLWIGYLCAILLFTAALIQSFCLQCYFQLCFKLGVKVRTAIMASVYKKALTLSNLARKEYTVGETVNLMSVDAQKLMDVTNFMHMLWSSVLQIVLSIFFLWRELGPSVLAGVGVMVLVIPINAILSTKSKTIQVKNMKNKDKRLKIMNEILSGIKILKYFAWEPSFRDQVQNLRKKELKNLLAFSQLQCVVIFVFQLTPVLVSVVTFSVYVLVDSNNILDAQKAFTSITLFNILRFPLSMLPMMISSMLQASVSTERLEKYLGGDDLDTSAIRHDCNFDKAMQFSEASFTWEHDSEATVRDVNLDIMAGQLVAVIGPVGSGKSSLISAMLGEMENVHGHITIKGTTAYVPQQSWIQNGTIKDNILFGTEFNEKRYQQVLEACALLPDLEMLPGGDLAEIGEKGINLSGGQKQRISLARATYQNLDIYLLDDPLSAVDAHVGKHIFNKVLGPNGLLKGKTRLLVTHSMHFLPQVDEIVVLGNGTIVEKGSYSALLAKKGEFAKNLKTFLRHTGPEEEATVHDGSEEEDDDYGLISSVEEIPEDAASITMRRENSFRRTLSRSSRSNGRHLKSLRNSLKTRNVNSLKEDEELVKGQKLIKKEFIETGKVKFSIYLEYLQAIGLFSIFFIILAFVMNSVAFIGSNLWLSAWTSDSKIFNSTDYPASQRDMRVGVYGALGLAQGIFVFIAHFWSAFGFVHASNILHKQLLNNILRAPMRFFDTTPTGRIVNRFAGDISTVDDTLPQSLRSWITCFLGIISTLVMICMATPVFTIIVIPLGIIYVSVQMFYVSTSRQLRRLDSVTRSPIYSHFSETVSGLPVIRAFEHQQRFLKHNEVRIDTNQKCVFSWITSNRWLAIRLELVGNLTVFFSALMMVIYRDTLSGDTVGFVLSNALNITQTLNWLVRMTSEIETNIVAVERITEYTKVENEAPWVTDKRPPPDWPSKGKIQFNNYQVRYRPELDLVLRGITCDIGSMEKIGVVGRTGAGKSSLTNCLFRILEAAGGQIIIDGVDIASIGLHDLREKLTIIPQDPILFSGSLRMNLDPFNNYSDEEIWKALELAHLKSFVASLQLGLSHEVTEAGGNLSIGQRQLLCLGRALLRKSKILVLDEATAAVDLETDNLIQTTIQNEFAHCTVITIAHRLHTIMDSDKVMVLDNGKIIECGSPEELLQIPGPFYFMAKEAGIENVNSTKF
Excerpt: as §2

[10] = system: glycocholic acid (GCA) accumulation; test: Bile acid analysis, glycocholic acid (GCA) accumulation; format: cell-based
Excerpt: Glycocholic acid (GCA) and glycochenodeoxycholic acid (GCDCA) are major components of human bile acids and their significant increase has been confirmed in DILI patients.

[11] = system: FXR; test: Transcription factor profiling in 2D HepG2 cell, FXR; format: cell-based; settings: 10 μM for 48 hours
[12] = target: T1, MRP4 (Homo sapiens, UniProt O15439); test: Human transporter inhibition study, MRP4; format: biochemical; settings: read-out: MRP4 in vitro inhibition IC50
T1 sequence (O15439 1-1325): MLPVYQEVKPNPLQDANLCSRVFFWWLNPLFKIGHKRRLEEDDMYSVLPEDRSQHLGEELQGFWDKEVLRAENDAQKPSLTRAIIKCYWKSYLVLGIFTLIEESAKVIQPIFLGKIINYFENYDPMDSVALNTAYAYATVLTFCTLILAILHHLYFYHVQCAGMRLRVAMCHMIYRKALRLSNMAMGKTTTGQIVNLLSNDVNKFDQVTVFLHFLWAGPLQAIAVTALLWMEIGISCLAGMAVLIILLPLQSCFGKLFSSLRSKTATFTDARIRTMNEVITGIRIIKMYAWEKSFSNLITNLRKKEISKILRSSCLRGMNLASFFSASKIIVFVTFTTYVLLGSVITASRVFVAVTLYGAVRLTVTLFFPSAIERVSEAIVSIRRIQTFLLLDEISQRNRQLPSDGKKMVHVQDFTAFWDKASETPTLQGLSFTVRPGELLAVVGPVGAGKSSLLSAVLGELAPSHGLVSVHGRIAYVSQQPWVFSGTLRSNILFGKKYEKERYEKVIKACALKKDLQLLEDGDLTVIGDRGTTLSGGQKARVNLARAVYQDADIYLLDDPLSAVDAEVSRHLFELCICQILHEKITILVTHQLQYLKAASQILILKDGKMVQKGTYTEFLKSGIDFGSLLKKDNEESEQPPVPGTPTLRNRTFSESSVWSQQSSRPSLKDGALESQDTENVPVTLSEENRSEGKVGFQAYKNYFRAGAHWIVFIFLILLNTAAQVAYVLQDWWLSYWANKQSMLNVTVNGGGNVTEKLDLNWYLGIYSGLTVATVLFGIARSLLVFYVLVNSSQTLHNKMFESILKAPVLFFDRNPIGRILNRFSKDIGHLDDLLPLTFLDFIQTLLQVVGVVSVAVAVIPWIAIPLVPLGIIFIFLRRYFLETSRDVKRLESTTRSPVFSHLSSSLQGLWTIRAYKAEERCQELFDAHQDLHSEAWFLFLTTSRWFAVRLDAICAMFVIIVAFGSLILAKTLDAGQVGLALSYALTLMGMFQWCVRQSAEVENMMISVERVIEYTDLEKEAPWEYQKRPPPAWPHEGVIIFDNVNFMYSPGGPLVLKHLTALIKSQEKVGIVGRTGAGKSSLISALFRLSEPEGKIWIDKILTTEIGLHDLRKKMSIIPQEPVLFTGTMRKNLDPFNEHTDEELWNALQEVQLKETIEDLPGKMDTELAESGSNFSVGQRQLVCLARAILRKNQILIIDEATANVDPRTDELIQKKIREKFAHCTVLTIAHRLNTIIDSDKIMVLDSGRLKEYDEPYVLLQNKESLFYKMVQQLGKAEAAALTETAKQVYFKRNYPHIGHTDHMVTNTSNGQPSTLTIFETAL
Excerpt: as §2

[13] = target: BSEP (bile salt export pump) (Homo sapiens, UniProt O95342); test: Human transporter inhibition study, BSEP; format: biochemical
Sequence of BSEP (bile salt export pump) (O95342 whole entry): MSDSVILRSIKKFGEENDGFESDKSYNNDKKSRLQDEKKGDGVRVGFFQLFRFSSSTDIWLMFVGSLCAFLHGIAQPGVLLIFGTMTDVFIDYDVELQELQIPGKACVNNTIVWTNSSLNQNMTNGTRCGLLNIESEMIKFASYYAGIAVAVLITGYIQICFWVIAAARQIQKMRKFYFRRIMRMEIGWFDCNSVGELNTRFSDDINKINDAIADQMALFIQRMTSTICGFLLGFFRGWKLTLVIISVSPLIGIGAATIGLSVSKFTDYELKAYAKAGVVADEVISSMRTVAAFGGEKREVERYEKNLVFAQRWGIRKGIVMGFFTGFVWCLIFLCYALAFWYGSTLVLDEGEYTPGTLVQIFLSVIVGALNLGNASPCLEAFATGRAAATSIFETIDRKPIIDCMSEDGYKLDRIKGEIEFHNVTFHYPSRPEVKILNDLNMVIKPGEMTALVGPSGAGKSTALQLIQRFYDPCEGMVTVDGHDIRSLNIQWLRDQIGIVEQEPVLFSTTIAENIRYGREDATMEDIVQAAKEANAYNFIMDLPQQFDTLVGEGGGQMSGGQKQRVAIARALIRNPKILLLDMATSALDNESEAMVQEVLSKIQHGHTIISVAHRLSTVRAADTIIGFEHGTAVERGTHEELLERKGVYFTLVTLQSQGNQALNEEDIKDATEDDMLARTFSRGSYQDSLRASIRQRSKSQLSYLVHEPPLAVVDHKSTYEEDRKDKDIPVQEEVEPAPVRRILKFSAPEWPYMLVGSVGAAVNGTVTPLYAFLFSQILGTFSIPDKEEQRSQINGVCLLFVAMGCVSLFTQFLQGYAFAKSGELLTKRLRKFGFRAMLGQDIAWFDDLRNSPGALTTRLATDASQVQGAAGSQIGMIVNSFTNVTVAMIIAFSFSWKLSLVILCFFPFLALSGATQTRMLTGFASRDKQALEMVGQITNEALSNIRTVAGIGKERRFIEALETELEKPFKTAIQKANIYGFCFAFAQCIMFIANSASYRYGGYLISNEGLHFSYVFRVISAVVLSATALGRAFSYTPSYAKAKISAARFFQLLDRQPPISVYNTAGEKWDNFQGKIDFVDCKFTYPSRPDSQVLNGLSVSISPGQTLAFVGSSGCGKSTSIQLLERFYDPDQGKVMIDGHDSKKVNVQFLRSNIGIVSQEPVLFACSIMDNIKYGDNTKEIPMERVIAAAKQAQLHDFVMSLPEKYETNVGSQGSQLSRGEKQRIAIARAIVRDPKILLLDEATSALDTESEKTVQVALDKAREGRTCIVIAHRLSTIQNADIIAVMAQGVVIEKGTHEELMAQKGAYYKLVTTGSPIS
Excerpt: DILI risk may be due to potency of BSEP inhibition in combination with in vivo drug exposure (e.g., Cmax or Css (plasma concentration at steady state)).
as §2

[14] = system: PPAR; test: Transcription factor profiling in 2D HepG2 cell, PPAR; format: cell-based; settings: 10 μM for 24 hours
[15] = cited from earlier work; for Cmax: fasiglifam, Clin. Pharmacol. Ther. 92, 29-39, read-out: Human Cmax (maximum plasma concentration at steady state); for Cpss, max: human
[16] = system: human hepatocytes; settings: Otieno et al. 2018, cited from earlier work
[17] = system: NRF2; test: Transcription factor profiling in 2D HepG2 cell, NRF2; format: cell-based; settings: 10 μM for 24 hours
[18] = system: AP-1; test: Transcription factor profiling in 2D HepG2 cell, AP-1; format: cell-based; settings: 10 μM for 24 hours
[19] = diabetics, metformin on its own; cited from earlier work
[20] = 0.5 mg, single oral dose 0.5 mg
[21] = 5 mg, single oral dose 5 mg fasted
[22] = 5 mg, single oral dose 5 mg fed
[23] = human hepatocytes, compound alone
[24] = in vitro inhibition, read-out: BSEP IC50

In the case of `CC#C[C@@H](CC(=O)O)c1ccc(O[C@@H]2CCc3c(-c4ccc(O[C@@H]5CCOC5)nc4)ccc(F)c32)cc1` [Reference Example 1, (S)-3-(4-(((R)-7-Fluoro-4-(6-(((R)-tetrahydrofuran-3-yl)oxy)pyridin-3-yl)-2,3-dihydro-1H-inden-1-yl)oxy)phenyl)hex-4-ynoic acid], the “Changes in ECG, vital signs, and lab data” value ([1]; SAD study) is reported as “no significant changes”, the “Adverse events of special interest / serious adverse events” value ([1]; SAD study 0.5-10 mg) is reported as “no adverse event of special interest (AESI) or serious adverse event (SAE) was reported” and the “Number of AEs considered possibly related to IMP” value ([1]; SAD study, all mild intensity) is reported as 5. For the same compound, the “Number of adverse events (AE) reported” value ([1]; SAD study, compound or placebo) was 12, the “Tolerability of single doses” value ([1]; single oral doses 0.5 mg to 10 mg) was “safe and well tolerated” and the CC50 [2] was 52.7 µM. For the same compound, the “MRP3 in vitro inhibition IC50” value [3] was “No inhibition”, the AUC(0-inf) [4, 20] was 811 ng·h/mL and the AUC(0-t) [4, 20] was 680 ng·h/mL. The Cmax [4, 20] was 28.4 ng/mL, the AUC(0-inf) ([4]; 1 mg, single oral dose 1 mg) was 1660 ng·h/mL and the AUC(0-t) ([4]; 1 mg, single oral dose 1 mg) was 1370 ng·h/mL. The Cmax ([4]; 1 mg, single oral dose 1 mg) was 55.8 ng/mL, the AUC(0-inf) ([4]; 2 mg, single oral dose 2 mg) was 2980 ng·h/mL and the AUC(0-t) ([4]; 2 mg, single oral dose 2 mg) was 2480 ng·h/mL. For the same compound, the Cmax ([4]; 2 mg, single oral dose 2 mg) was 109 ng/mL, the AUC(0-inf) [4, 21] was 7740 ng·h/mL and the AUC(0-t) [4, 21] was 6520 ng·h/mL. It also gave a Cmax [4, 21] of 243 ng/mL, an AUC(0-inf) [4, 22] of 8270 ng·h/mL and an AUC(0-t) [4, 22] of 6930 ng·h/mL. The Cmax [4, 22] was 250 ng/mL, the AUC(0-inf) ([4]; 10 mg, single oral dose 10 mg) was 18600 ng·h/mL and the AUC(0-t) ([4]; 10 mg, single oral dose 10 mg) was 14800 ng·h/mL. The Cmax ([4]; 10 mg, single oral dose 10 mg) was 545 ng/mL, the “Fed/fasted % ratio for AUClast” value ([4]; single dose 5 mg) was 106.28% and the “Fed/fasted % ratio for Cmax” value ([4]; single dose 5 mg) was 103.19%. For the same compound, the “Inhibitory effect on mitochondrial function (DILI risk)” value [5] was “lower DILI risk than fasiglifam”, the “Dose predicted to exceed the CVB burden threshold of 1 mg/day” value [6] was “over 260 mg a day” and the “CVB Burden” value ([6]; daily dose 2 mg (human efficacious dose from PK/PD modeling)) was 0.01 mg/day. For the same compound, the “Covalent binding (CVB), +Aminobenzotriazole (CYP inhibitor)” value ([6]; human hepatocytes) was 29.5 pmol/mg protein, the “Covalent binding (CVB), +Borneol (UGT inhibitor)” value ([6]; human hepatocytes) was 21.2 pmol/mg protein and the “Covalent binding (CVB), compound” value [6, 23] was 37.6 pmol/mg protein. The “Effect on various transcription factor (TF) activities” value [7] was “insignificant”, the “Reduction in glucose AUC in OGTT” value [8] was “approximately 20.8%” and the IC50 [9] was 39.9 µM. For the same compound, the “Accumulation of glycocholic acid (GCA)” value ([10]; at 1 μM) was “does not show significant accumulation”, the “Increase of FXR activity” value [11] was 1.58 fold and the IC50 [12] was 4.4 µM. The IC50 [13, 24] was 14.3 µM and the IC50 ([13]; read-out: BSEP (bile salt export pump) IC50) was 14.3 µM.
For `Cc1cc(OCCCS(C)(=O)=O)cc(C)c1-c1cccc(COc2ccc3c(c2)OC[C@H]3CC(=O)O)c1` [fasiglifam], the “Activity of PPAR” value [14] is listed as “significantly increased”, the Cmax ([15]; listed as Fasiglifam) is listed as 10 µM and the Cmax [15] is listed as 10.1 µM. For the same compound, the “Cpss, max” value ([15]; dose 25 mg) was 4.38 µM, the “Cpss, max” value ([15]; dose 50 mg) was 10.10 µM and the CC50 [2] was 88.4 µM. The IC50 ([3]; read-out: MRP3 in vitro inhibition IC50) was 14.2 µM, the “CVB Burden” value ([16]; daily dose 50 mg) was 2 mg/day and the “Covalent binding (CVB), compound” value [16, 23] was 69.1 pmol/mg protein. For the same compound, the “Covalent binding (CVB), +Aminobenzotriazole (CYP inhibitor)” value ([16]; human hepatocytes) was 73.7 pmol/mg protein, the “Covalent binding (CVB), +Borneol (UGT inhibitor)” value ([16]; human hepatocytes) was 44.4 pmol/mg protein and the “Activity of NRF2” value [17] was “significantly increased”. For the same compound, the “Activity of AP-1” value [18] was “significantly increased”, the IC50 [9] was 24.8 µM and the “Accumulation of glycocholic acid (GCA)” value ([10]; at 4 μM) was “significant accumulation”. For the same compound, the IC50 [12] was 11.1 µM and the IC50 [13, 24] was 19.6 µM.
For `CN(C)C(=N)N=C(N)N` [metformin], the “Average improvement in the HbA1c value” [19] is given as 1.0-1.5%.

From patent US20220409598A1, “METHOD OF CONTROLLING BLOOD SUGAR LEVEL AND TREATMENT OF DIABETES AND RELATED CONDITIONS” (ILDONG PHARMACEUTICAL CO., LTD., priority 2021, published 2022)
